According to US20100305120A1, “COMPOUNDS FOR TREATING MUSCULAR DYSTROPHY” (BIOMARIN IGA LIMITED, priority 2008, published 2010):

System: Utrophin A promoter linked to a luciferase reporter gene
Test: Luciferase reporter assay (murine H2K cells), H2K/mdx/Utro A reporter cell line
Type: cell-based
Conditions: 48 h; test compound concentration 10 μM; mdx mouse H2K Utrophin A reporter cells; read-out: Activity (luciferase level relative to control)
Experimental: Luciferase Reporter Assay (Murine H2K Cells)
The cell line used for the screen is an immortalized mdx mouse H2K cell line that has been stably transfected with a plasmid containing ≈5 kb fragment of the Utrophin A promoter including the first untranslated exon linked to a luciferase reporter gene.
Under conditions of low temperature and interferon containing media, the cells remain as myoblasts. These are plated into 96 well plates and cultured in the presence of compound for three days. The level of luciferase is then determined by cell lysis and reading of the light output from the expressed luciferase gene utilising a plate luminometer.
Luciferase Assay for 96 Well Plates
The H2K/mdx/Utro A reporter cell line cells were plated out into 96 well plates (Falcon 353296, white opaque) at a density of approximately 5000 cells/well in 190 μl normal growth medium. The plates were then incubated at 33° C. in the presence of 10% CO2 for 24 hrs.
Compounds were dosed by adding 10 μl of diluted compound to each well giving a final concentration of 10 μM (where a different final concentration was required, the amount of compound solution added was amended accordingly). The plates were then incubated for a further 48 hrs. Cells were then lysed in situ following the manufacture's protocols (Promega Steady-Glo Luciferase Assay System(E2520). Then counted for 10 seconds using a plate luminometer (Victor1420).
Compounds for screening were stored at −20° C. as 10 mM stocks in 100% DMSO until required.
Biological activity as assessed using the luciferase reporter assay in murine H2K cells, and the results are shown in Table 1, which also lists the concentration of the test compound solution in μM.

Compound | activity at 10 µM [%]
CON(C)S(=O)(=O)c1ccc(Cn2nc(C(=O)Nc3nc4ccccc4s3)c3ccccc32)cc1 [Compound 1, N-(benzo[d]thiazol-2-yl)-1-(4-(N-methoxy-N-methylsulfamoyl)benzyl)-1H-indazole-3-carboxamide] | < 200
COc1ccc(OC)c(NC(=O)Nc2nn(Cc3ccc(COc4ccc5c(c4)OCO5)cc3)c3ccc(C(F)(F)F)cc23)c1 [Compound 2, 1-(1-(4-((benzo[d][1,3]dioxol-5-yloxy)methyl)benzyl)-5-(trifluoromethyl)-1H-indazol-3-yl)-3-(2,5-dimethoxyphenyl)urea] | < 200
CS(=O)(=O)c1ccc(Cn2nc(C(=O)Nc3nccs3)c3ccccc32)cc1 [Compound 3, 1-(4-(methylsulfonyl)benzyl)-N-(thiazol-2-yl)-1H-indazole-3-carboxamide] | < 200
CS(=O)(=O)c1ccc(Cn2nc(C(=O)Nc3ccc4c(c3)OCO4)c3ccccc32)cc1 [Compound 4, N-(benzo[d][1,3]dioxol-5-yl)-1-(4-(methylsulfonyl)benzyl)-1H-indazole-3-carboxamide] | 301 to 400
COc1ccc(NC(=O)c2nn(CCCOc3ccccc3)c3ccccc23)cc1 [Compound 5, N-(4-methoxyphenyl)-1-(3-phenoxypropyl)-1H-indazole-3-carboxamide] | < 200
C#CCN(C)S(=O)(=O)c1ccc(Cn2nc(C(=O)Nc3ccc(N4CCCCC4)cc3)c3ccccc32)cc1 [Compound 6, 1-(4-(N-methyl-N-(prop-2-ynyl)sulfamoyl)benzyl)-N-(4-(piperidin-1-yl)phenyl)-1H-indazole-3-carboxamide] | 301 to 400
CCN(CC)S(=O)(=O)c1ccc(Cn2nc(C(=O)Nc3nc4ccccc4s3)c3ccccc32)cc1 [Compound 7, N-(benzo[d]thiazol-2-yl)-1-(4-(N,N-diethylsulfamoyl)benzyl)-1H-indazole-3-carboxamide] | < 200
COc1ccc2c(c1)c(C(=O)Nc1ccc(N3CCCCC3)cc1)nn2Cc1ccc(S(=O)(=O)N(C)OC)cc1 [Compound 8, 5-methoxy-1-(4-(N-methoxy-N-methylsulfamoyl)benzyl)-N-(4-(piperidin-1-yl)phenyl)-1H-indazole-3-carboxamide] | < 200
O=C(Nc1cccc(F)c1)Nc1nn(Cc2ccc(COc3ccc4c(c3)OCO4)cc2)c2ccc(C(F)(F)F)cc12 [Compound 9, 1-(1-(4-((benzo[d][1,3]dioxol-5-yloxy)methyl)benzyl)-5-(trifluoromethyl)-1H-indazol-3-yl)-3-(3-fluorophenyl)urea] | < 200
CCN(CC)S(=O)(=O)c1ccc(Cn2nc(C(=O)Nc3ccc(N4CCCCC4)cc3)c3ccccc32)cc1 [Compound 10, 1-(4-(N,N-diethylsulfamoyl)benzyl)-N-(4-(piperidin-1-yl)phenyl)-1H-indazole-3-carboxamide] | 201 to 300
COC(=O)c1ccc(NC(=O)Nc2nn(Cc3ccc(COc4cccc(OC)c4)cc3)c3ccccc23)cc1 [Compound 11, methyl 4-(3-(1-(4-((3-methoxyphenoxy)methyl)benzyl)-1H-indazol-3-yl)ureido)benzoate] | < 200
COc1cccc(OC)c1NC(=O)Nc1nn(Cc2ccc(C(F)(F)F)cc2)c2ccccc12 [Compound 12, 1-(2,6-dimethoxyphenyl)-3-(1-(4-(trifluoromethyl)benzyl)-1H-indazol-3-yl)urea] | < 200
Cc1ccc2c(c1)c(NC(=O)Nc1ccccc1C(C)C)nn2Cc1cc2c(cc1Cl)OCO2 [Compound 13, 1-(1-((6-chlorobenzo[d][1,3]dioxol-5-yl)methyl)-5-methyl-1H-indazol-3-yl)-3-(2-isopropylphenyl)urea] | < 200
O=C(Nc1ccc(N2CCCCC2)cc1)c1nn(CCCOc2ccccc2)c2ccccc12 [Compound 14, 1-(3-phenoxypropyl)-N-(4-(piperidin-1-yl)phenyl)-1H-indazole-3-carboxamide] | 301 to 400
Cc1cccc(NC(=O)Nc2nn(Cc3ccc(C(F)(F)F)cc3)c3ccccc23)c1 [Compound 15, 1-m-tolyl-3-(1-(4-(trifluoromethyl)benzyl)-1H-indazol-3-yl)urea] | < 200
O=C(Nc1nccs1)c1nn(CCCOc2ccccc2)c2ccccc12 [Compound 16, 1-(3-phenoxypropyl)-N-(thiazol-2-yl)-1H-indazole-3-carboxamide] | > 401
O=C(Nc1nc2ccccc2s1)c1nn(Cc2ccc(C(=O)N3CCOCC3)cc2)c2ccccc12 [Compound 17, N-(benzo[d]thiazol-2-yl)-1-(4-(morpholine-4-carbonyl)benzyl)-1H-indazole-3-carboxamide] | 201 to 300

Compound | activity at 10 µM [%]
CS(=O)(=O)c1ccc(Cn2nc(C(=O)Nc3ccc(N4CCCCC4)cc3)c3ccccc32)cc1 [Compound 18, 1-(4-(methylsulfonyl)benzyl)-N-(4-(piperidin-1-yl)phenyl)-1H-indazole-3-carboxamide] | 201 to 300
CC(C)c1ccc(NC(=O)c2nn(Cc3ccc(C(=O)N4CCOCC4)cc3)c3ccccc23)cc1 [Compound 19, N-(4-isopropylphenyl)-1-(4-(morpholine-4-carbonyl)benzyl)-1H-indazole-3-carboxamide] | > 401
CN(Cc1ccccc1)C(=O)c1ccc(Cn2nc(C(=O)Nc3ccc(C(F)(F)F)cc3)c3ccccc32)cc1 [Compound 20, 1-(4-(benzyl(methyl)carbamoyl)benzyl)-N-(4-(trifluoromethyl)phenyl)-1H-indazole-3-carboxamide] | < 200
C#CCN(C)S(=O)(=O)c1ccc(Cn2nc(C(=O)Nc3ccc4c(c3)OCO4)c3ccccc32)cc1 [Compound 21, N-(benzo[d][1,3]dioxol-5-yl)-1-(4-(N-methyl-N-(prop-2-ynyl)sulfamoyl)benzyl)-1H-indazole-3-carboxamide] | > 401
CC(C)c1ccc(NC(=O)c2nn(Cc3ccc(C(=O)N(C)Cc4ccccc4)cc3)c3ccccc23)cc1 [Compound 22, 1-(4-(benzyl(methyl)carbamoyl)benzyl)-N-(4-isopropylphenyl)-1H-indazole-3-carboxamide] | < 200
CS(=O)(=O)c1ccc(Cn2nc(C(=O)Nc3ccc(OC(F)(F)F)cc3)c3ccccc32)cc1 [Compound 23, 1-(4-(methylsulfonyl)benzyl)-N-(4-(trifluoromethoxy)phenyl)-1H-indazole-3-carboxamide] | < 200
CN(c1ccccc1)S(=O)(=O)c1ccc(Cn2nc(C(=O)NOCc3ccccc3)c3ccccc32)cc1 [Compound 24, N-(benzyloxy)-1-(4-(N-methyl-N-phenylsulfamoyl)benzyl)-1H-indazole-3-carboxamide] | < 200
O=C(Nc1ccc2c(c1)OC(F)(F)O2)c1nn(Cc2ccc(C(=O)N3CCOCC3)cc2)c2ccccc12 [Compound 25, N-(2,2-difluorobenzo[d][1,3]dioxol-5-yl)-1-(4-(morpholine-4-carbonyl)benzyl)-1H-indazole-3-carboxamide] | > 401
CC(C)c1ccc(NC(=O)c2nn(CCOc3ccccc3)c3ccccc23)cc1 [Compound 26, N-(4-isopropylphenyl)-1-(2-phenoxyethyl)-1H-indazole-3-carboxamide] | < 200
CC(C)c1ccc(NC(=O)c2nn(Cc3ccc(-c4ccccc4)cc3)c3ccccc23)cc1 [Compound 27, 1-(biphenyl-4-ylmethyl)-N-(4-isopropylphenyl)-1H-indazole-3-carboxamide] | < 200
COc1cccc(OCc2ccc(Cn3nc(NC(=O)NCc4ccccc4F)c4ccccc43)cc2)c1 [Compound 28, 1-(2-fluorobenzyl)-3-(1-(4-((3-methoxyphenoxy)methyl)benzyl)-1H-indazol-3-yl)urea] | 201 to 300
O=C(Nc1ccccc1C(F)(F)F)Nc1nn(Cc2ccc(COc3ccc4c(c3)OCO4)cc2)c2ccc(C(F)(F)F)cc12 [Compound 29, 1-(1-(4-((benzo[d][1,3]dioxol-5-yloxy)methyl)benzyl)-5-(trifluoromethyl)-1H-indazol-3-yl)-3-(2-(trifluoromethyl)phenyl)urea] | < 200
COc1cccc(OCc2ccc(Cn3nc(NC(=O)Nc4ccc5c(c4)CCC5)c4ccccc43)cc2)c1 [Compound 30, 1-(2,3-dihydro-1H-inden-5-yl)-3-(1-(4-((3-methoxyphenoxy)methyl)benzyl)-1H-indazol-3-yl)urea] | < 200
COc1ccc(NC(=O)Nc2nn(Cc3ccc(COc4ccc5c(c4)OCO5)cc3)c3ccc(C(F)(F)F)cc23)c(OC)c1 [Compound 31, 1-(1-(4-((benzo[d][1,3]dioxol-5-yloxy)methyl)benzyl)-5-(trifluoromethyl)-1H-indazol-3-yl)-3-(2,4-dimethoxyphenyl)urea] | < 200
Cc1cccc(CNC(=O)Nc2nn(Cc3cc4c(cc3Cl)OCO4)c3ccccc23)c1 [Compound 32, 1-(1-((6-chlorobenzo[d][1,3]dioxol-5-yl)methyl)-1H-indazol-3-yl)-3-(3-methylbenzyl)urea] | < 200
O=C(Nc1nn(Cc2ccc(CN3C(=O)CCC3=O)cc2)c2ccccc12)c1cnc2ccccc2n1 [Compound 33, N-(1-(4-((2,5-dioxopyrrolidin-1-yl)methyl)benzyl)-1H-indazol-3-yl)quinoxaline-2-carboxamide] | < 200
